Experimental findings from ChEMBL document CHEMBL1124198, “Potential inhibitors of S-adenosylmethionine-dependent methyltransferases. 11. Molecular dissections of neplanocin A as potential inhibitors of S-adenosylhomocysteine hydrolase” (J Med Chem, 1988) are described below.

The structures appear in SMILES notation. pIC50: −log10 of the molar value.

Experiment [1] has as its target T1, Adenosylhomocysteinase (Homo sapiens, UniProt P23526).
A further experiment relates to Vaccinia virus. The note with it: l929.
For experiment [2], the target named is Adenosylhomocysteinase (Mus musculus, UniProt P50247). In words: biochemical.
Experiment [3] has as its target T1, Adenosylhomocysteinase. This is another data set of the same source.

T1 sequence (P23526 whole entry): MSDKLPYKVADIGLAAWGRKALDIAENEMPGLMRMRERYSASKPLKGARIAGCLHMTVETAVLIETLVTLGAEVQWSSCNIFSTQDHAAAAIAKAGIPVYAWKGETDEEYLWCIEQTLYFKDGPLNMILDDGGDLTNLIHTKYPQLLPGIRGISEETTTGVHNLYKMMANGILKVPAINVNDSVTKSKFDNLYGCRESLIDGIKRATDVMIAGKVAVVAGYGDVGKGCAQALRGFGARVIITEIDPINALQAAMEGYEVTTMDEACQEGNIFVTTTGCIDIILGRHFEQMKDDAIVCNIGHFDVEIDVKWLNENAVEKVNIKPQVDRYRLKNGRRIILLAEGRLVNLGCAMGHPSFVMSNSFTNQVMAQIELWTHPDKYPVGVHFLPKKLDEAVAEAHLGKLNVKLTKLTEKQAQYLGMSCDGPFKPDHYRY
Sequence of Adenosylhomocysteinase (Mus musculus, UniProt P50247) (P50247 whole entry): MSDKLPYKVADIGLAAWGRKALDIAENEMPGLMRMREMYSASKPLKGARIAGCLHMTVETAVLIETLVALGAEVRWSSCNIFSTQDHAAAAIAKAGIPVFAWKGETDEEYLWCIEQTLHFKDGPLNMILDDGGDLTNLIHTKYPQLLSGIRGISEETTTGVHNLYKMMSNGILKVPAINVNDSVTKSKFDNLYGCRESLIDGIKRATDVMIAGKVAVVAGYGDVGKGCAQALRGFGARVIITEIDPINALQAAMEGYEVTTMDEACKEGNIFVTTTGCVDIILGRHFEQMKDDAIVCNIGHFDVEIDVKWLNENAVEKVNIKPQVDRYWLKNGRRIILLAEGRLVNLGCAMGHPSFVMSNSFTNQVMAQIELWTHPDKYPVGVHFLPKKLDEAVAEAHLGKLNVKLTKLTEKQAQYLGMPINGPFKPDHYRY

What is called pIC50 is the negative decadic logarithm of the IC50, by convention in mol/L. High values mean a low IC50, low ones a high IC50. `Nc1nccc2c1ncn2CC#CCO`: the IC50 result against Adenosylhomocysteinase [1] was “Not Active”. In addition, the pIC50 with Vaccinia virus is 3.52; against Adenosylhomocysteinase [2], 3.70.
Regarding `Nc1nccc2c1ncn2C/C=C\CO`, on Adenosylhomocysteinase [1], the IC50 entry was “Not Active”. The results for the pIC50 in the experiment on Vaccinia virus and against Adenosylhomocysteinase [2] were 3.52 and 3.70, respectively.
Regarding `Nc1ncnc2c1ncn2CC#CCO`, the Ki result on Adenosylhomocysteinase [3] is listed as “Not Active”. The pIC50 with Vaccinia virus was < 3.49.
Consider `CC(C)=CCn1cnc2c(N)ncnc21`, for which, at Adenosylhomocysteinase [3], the Ki entry was “Not Active”. In addition, the pIC50 in the experiment with Vaccinia virus is 4.22.
For the molecule `Nc1ncnc2c1ncn2C/C=C\[C@@H](O)CO`, on Adenosylhomocysteinase [1], the IC50 entry is “Not Active”. Further, the negative-log IC50 (pIC50) in the experiment on Vaccinia virus and against Adenosylhomocysteinase [2] was 4.00 throughout.
For `Nc1ncnc2c1ncn2C/C=C(/CO)[C@@H](O)CO.Nc1ncnc2c1ncn2C/C=C(\CO)[C@@H](O)CO`, the IC50 entry at Adenosylhomocysteinase [1] is “Not Active”. The pIC50 with Vaccinia virus is 3.77.
For the molecule `Nc1nccc2c1ncn2C/C=C\[C@@H](O)CO`, the IC50 entry on Adenosylhomocysteinase [1] is “Not Active”. Also, the values for the negative-log IC50 (pIC50) in the experiment on Vaccinia virus and at Adenosylhomocysteinase [2] were 4.15 and 4.21, respectively.
`Nc1ncnc2c1ncn2C/C=C/C(O)CO` (configuration not stated): at Adenosylhomocysteinase [3], the Ki result was “Not Active”. Further, the pIC50 in the experiment with Vaccinia virus was 3.60.
As to `Nc1ncnc2c1ncn2C/C=C\CO`, the IC50 entry against Adenosylhomocysteinase [1] is given as “Not Active”. Besides, the pIC50 in the experiment with Vaccinia virus was 3.97; at Adenosylhomocysteinase [2], 3.84.
`C/C(=C\Cn1cnc2c(N)ncnc21)CO`: the IC50 entry on Adenosylhomocysteinase [1] is reported as “Not Active”. Further, the pIC50 in the experiment on Vaccinia virus was 3.52.
Consider `Nc1ncnc2c1ncn2CC=C(CO)CO`, for which the IC50 result at Adenosylhomocysteinase [1] is listed as “Not Active”. Besides, the pIC50 in the experiment with Vaccinia virus is 3.15; on Adenosylhomocysteinase [2], 4.19.
For `C/C(=C/Cn1cnc2c(N)ncnc21)CO` the same measures were “Not Active”, 3.66 and 3.70.
The like results for `Nc1ncnc2c1ncn2C/C=C/CO` were, in that order, “Not Active”, 3.96 and 3.64.
In the case of `Nc1nccc2c1ncn2C/C=C/CO`, the Ki result at Adenosylhomocysteinase [3] is “Not Active”. Besides, the pIC50 with Vaccinia virus was 4.40.
In the case of `Nc1nccc2c1ncn2CC=C(CO)CO`, the IC50 result at Adenosylhomocysteinase [1] was “Not Active”. For the same molecule, the figures for the pIC50 in the experiment on Vaccinia virus and against Adenosylhomocysteinase [2] were 3.30 and 3.96, respectively.
With `Nc1ncnc2c1ncn2[C@@H]1C=C(CO)[C@@H](O)[C@H]1O` [NEOPLANOCIN A], the IC50 result at Adenosylhomocysteinase [1] is “Not Active”. Besides, the results for the pIC50 in the experiment with Vaccinia virus and against Adenosylhomocysteinase [2] were 7.10 and 7.30, respectively.
